Consider five molecules from article PMC5240934, “Molecular Mechanism of Disease-Associated Mutations in the Pre-M1 Helix of NMDA Receptors and Potential Rescue Pharmacology” (PLoS Genetics, 2017).

Read-outs that look alike come from different tables or passages of the source.

Holding throughout (assay): two-electrode voltage clamp, Xenopus oocytes
What all share (format): cell-based

For assay [1], the target named is T1, human GluN1/GluN2A (Homo sapiens, UniProt Q05586+Q12879, Q12879:P552R).
T1 construct: gene GRIN1; full open reading frames in pCI-neo, cRNA in Xenopus laevis oocytes; di-heteromeric tetramer
T1 sequence (Q12879 23-1464 P552R, other chains not shown): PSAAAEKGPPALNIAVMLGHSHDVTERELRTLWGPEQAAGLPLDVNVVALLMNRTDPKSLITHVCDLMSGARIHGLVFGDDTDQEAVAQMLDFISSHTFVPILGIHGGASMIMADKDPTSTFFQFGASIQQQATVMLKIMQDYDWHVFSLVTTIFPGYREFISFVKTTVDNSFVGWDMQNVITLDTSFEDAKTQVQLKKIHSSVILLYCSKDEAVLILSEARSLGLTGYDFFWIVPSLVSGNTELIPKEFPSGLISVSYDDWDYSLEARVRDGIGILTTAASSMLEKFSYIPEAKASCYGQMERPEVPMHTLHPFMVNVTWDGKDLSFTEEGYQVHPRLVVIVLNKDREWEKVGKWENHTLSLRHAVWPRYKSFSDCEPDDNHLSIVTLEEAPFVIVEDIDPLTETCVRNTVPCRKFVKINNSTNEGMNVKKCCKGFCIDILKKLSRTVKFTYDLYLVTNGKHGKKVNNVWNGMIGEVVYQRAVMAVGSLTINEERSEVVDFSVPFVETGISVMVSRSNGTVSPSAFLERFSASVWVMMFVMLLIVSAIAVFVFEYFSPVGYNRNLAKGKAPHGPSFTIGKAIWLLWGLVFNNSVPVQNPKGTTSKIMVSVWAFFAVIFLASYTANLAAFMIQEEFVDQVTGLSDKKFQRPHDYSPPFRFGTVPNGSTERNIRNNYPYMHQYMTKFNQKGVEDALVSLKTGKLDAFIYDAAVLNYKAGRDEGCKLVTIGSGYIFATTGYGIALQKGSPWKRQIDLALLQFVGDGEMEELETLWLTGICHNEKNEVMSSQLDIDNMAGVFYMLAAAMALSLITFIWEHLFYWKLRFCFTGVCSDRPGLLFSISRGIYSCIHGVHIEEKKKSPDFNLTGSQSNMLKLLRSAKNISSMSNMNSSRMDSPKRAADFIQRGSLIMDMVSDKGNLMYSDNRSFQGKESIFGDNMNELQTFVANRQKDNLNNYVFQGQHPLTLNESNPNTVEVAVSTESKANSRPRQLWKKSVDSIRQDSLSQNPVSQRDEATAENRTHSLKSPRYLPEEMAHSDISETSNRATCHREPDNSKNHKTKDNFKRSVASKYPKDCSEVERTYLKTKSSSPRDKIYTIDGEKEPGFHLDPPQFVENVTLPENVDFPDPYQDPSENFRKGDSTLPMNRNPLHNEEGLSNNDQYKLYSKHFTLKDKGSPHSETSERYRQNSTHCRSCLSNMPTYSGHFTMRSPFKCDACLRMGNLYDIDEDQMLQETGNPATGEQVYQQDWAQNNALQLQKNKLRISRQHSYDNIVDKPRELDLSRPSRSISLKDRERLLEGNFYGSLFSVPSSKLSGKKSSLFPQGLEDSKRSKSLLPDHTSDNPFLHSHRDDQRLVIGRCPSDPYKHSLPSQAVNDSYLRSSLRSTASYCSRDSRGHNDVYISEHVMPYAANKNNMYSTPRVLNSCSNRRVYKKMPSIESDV
The text has this:
(§1) two-electrode voltage clamp, Xenopus oocytes on human GluN1/GluN2A

Assay [2] deals with T2, human GluN1/GluN2A (Homo sapiens, UniProt Q05586+Q12879).
T2 construct: gene GRIN1; full open reading frames in pCI-neo, cRNA in Xenopus laevis oocytes; di-heteromeric tetramer
T2 sequence (Q12879 23-1464, other chains not shown): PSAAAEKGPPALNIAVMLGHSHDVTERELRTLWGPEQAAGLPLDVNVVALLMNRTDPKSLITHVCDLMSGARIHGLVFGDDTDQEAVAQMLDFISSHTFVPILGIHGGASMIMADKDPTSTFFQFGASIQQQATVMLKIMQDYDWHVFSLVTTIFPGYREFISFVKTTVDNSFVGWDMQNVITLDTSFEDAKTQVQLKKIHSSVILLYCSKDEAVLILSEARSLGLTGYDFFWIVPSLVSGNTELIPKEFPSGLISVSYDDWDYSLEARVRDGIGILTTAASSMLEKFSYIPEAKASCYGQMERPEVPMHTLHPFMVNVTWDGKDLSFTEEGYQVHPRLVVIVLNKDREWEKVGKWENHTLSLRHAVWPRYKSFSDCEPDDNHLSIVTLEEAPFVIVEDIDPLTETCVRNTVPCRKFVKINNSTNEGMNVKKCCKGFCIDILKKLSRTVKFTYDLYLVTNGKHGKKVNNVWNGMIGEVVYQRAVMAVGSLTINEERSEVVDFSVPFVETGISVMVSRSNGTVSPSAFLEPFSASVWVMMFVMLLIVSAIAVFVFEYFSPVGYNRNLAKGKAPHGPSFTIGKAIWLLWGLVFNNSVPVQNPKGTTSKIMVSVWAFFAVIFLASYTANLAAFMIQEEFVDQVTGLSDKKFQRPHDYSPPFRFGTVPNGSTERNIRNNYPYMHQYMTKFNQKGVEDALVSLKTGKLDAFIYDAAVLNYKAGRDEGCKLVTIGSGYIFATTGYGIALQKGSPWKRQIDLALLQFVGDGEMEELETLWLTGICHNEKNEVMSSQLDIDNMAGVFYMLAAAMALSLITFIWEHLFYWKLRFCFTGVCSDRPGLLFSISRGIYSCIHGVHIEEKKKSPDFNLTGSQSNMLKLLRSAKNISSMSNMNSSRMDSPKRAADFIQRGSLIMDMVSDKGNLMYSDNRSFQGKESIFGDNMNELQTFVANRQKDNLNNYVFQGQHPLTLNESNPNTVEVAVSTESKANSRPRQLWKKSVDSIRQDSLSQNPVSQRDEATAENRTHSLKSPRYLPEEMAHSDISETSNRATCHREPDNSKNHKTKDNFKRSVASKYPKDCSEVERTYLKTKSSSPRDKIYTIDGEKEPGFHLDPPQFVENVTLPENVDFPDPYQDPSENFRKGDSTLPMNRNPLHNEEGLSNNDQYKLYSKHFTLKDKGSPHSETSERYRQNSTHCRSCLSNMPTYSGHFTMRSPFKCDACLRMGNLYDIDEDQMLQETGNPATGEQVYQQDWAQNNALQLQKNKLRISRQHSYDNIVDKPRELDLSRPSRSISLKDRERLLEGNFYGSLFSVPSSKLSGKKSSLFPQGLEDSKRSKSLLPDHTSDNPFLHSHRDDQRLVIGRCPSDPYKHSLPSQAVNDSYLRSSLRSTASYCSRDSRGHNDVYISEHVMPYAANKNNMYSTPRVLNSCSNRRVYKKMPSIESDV
Text: as §1

Another assay addresses T3, rat GluN1/GluN2D (Rattus norvegicus, UniProt P35439+Q62645).
T3 construct: gene Grin1; full-length subunits in pCI-neo, cRNA in Xenopus laevis oocytes; di-heteromeric tetramer
From the text: two-electrode voltage clamp, Xenopus oocytes on rat GluN1/GluN2D

Assay [3] concerns the target T4, human GluN1/GluN2B (Homo sapiens, UniProt Q05586+Q13224, Q13224:P553R).
T4 construct: gene GRIN1; full open reading frames in pCI-neo, cRNA in Xenopus laevis oocytes; di-heteromeric tetramer
The text has this:
(§2) two-electrode voltage clamp, Xenopus oocytes on human GluN1/GluN2B

Assay [4] deals with T5, human GluN1/GluN2B (Homo sapiens, UniProt Q05586+Q13224, Q05586:D552E).
T5 construct: gene GRIN1; full open reading frames in pCI-neo, cRNA in Xenopus laevis oocytes; di-heteromeric tetramer
T5 sequence (Q13224 27-1484, other chains not shown): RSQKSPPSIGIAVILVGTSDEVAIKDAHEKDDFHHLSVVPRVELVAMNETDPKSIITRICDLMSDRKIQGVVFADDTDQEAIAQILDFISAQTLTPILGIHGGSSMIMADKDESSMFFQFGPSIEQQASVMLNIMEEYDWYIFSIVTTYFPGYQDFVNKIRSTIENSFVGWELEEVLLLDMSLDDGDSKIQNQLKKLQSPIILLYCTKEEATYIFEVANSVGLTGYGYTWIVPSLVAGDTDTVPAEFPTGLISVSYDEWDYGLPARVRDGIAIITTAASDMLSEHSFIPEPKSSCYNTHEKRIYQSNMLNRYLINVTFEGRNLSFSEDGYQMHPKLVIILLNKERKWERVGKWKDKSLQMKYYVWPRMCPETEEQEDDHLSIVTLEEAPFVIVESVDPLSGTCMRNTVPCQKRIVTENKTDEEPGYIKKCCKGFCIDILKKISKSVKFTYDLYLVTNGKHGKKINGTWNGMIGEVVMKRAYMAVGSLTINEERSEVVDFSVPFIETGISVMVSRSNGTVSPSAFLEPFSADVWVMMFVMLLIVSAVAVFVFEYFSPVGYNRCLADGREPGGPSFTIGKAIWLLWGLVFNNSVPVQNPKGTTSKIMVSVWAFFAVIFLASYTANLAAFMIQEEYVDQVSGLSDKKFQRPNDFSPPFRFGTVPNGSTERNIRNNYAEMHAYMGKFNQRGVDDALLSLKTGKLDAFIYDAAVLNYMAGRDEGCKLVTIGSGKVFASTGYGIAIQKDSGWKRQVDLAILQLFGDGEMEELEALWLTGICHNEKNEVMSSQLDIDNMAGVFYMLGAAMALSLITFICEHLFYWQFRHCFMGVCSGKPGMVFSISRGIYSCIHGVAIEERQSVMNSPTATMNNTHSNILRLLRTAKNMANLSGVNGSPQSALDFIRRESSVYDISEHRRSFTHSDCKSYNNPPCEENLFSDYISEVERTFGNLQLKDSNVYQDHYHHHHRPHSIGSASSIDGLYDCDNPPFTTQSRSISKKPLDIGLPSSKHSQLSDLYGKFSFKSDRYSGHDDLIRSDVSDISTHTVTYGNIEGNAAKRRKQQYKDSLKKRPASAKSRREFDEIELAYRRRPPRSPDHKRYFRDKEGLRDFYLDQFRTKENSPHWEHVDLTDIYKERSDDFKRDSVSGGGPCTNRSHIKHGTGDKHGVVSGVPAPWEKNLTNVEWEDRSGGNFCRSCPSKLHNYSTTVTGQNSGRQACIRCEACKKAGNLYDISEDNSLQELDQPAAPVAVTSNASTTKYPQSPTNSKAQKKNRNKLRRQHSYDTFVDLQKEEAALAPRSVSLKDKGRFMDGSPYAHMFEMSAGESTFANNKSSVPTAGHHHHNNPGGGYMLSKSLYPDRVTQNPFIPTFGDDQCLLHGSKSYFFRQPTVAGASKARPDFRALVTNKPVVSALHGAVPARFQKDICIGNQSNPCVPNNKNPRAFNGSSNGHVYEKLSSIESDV
Text: as §2

In assay [5] the target is T6, human GluN1/GluN2B (Homo sapiens, UniProt Q05586+Q13224, Q05586:P557R).
T6 construct: gene GRIN1; full open reading frames in pCI-neo, cRNA in Xenopus laevis oocytes; di-heteromeric tetramer
Text: as §2

Assay [6] deals with T7, human GluN1/GluN2A (Homo sapiens, UniProt Q05586+Q12879, Q12879:A548T).
T7 construct: gene GRIN1; full open reading frames in pCI-neo, cRNA in Xenopus laevis oocytes; di-heteromeric tetramer
Text: as §1

The target of assay [7] is T8, human GluN1/GluN2A (Homo sapiens, UniProt Q05586+Q12879, Q05586:D552E).
T8 construct: gene GRIN1; full open reading frames in pCI-neo, cRNA in Xenopus laevis oocytes; di-heteromeric tetramer
Text: as §1

Assay [8] addresses T9, human GluN1/GluN2A (Homo sapiens, UniProt Q05586+Q12879, Q05586:P557R).
T9 construct: gene GRIN1; full open reading frames in pCI-neo, cRNA in Xenopus laevis oocytes; di-heteromeric tetramer
Text: as §1

[9] abbreviates: read-out: IC50 (n; max inhibition) / GluN2A-P552R.

On to `NC12CC3CC(CC(C3)C1)C2` [Amantadine], for which the IC50 (as a rule, the concentration at which inhibition is half-maximal) was determined as 86 ± 22 µM at human GluN1/GluN2A [1] (setting [9]) and 126 ± 17 µM on human GluN1/GluN2A [2] (read-out: IC50 (n; max inhibition) / GluN2A-WT).

In the case of `COc1ccc2c(c1)[C@]13CCCC[C@@H]1[C@H](C2)N(C)CC3` [Dextromethorphan], the IC50 at human GluN1/GluN2A [1] (setting [9]) was 15 ± 4.6 µM; on human GluN1/GluN2A [2] (channel blocker, -40 mV, pH 7.4, no Mg2+, 23 °C, read-out: IC50 (n; max inhibition) / GluN2A-WT), 18 ± 2.9 µM.

Molecule `N[C@@H](CCC(=O)O)C(=O)O` [Glutamate] displayed an EC50 at rat GluN1/GluN2D of 0.4 ± 0.07 µM.

Consider `NCC(=O)O` [Glycine], for which the EC50 at human GluN1/GluN2B [3] amounted to 0.05 ± 0.01 µM; on human GluN1/GluN2B [4], 0.66 ± 0.07 µM; at human GluN1/GluN2B [5], 0.07 ± 0.01 µM; on human GluN1/GluN2A [6], 2.4 ± 0.09 µM; at human GluN1/GluN2A [1] (read-out: Di-heteromeric NMDA Receptors / GluN2A-P552R), 0.06 ± 0.01 µM; at human GluN1/GluN2A [2], 1.4 ± 0.14 µM. Also, the EC50 at human GluN1/GluN2A [7] is 3.7 ± 0.32 µM; on human GluN1/GluN2A [8], 0.18 ± 0.02 µM.

On to `CNC1(c2ccccc2Cl)CCCCC1=O` (stereo not drawn) [Ketamine], for which the IC50 against human GluN1/GluN2A [1] amounted to 1.3 ± 0.2 µM; against human GluN1/GluN2A [2], 4.7 ± 0.8 µM.
